Test results as given in patent US7629317B2, “Control of growth and repair of gastro-intestinal tissues by gastrokines and inhibitors” (The University of Chicago, priority 2001, dated 2009).
“Also recorded” adds a separate entry of the source.

Assays:
Caco2/bbe (C2) cells = assay: Transepithelial electrical resistance (TER) of Caco2/bbe (C2) cell monolayers after injury; assay type: cell-based, human
Description: (§1) Panel A: When a stable TER was reached (330 Ω·cm^2) in MDCK cell monolayers the medium was changed to DMEM containing FBS (0.2%), and either peptide 77-97 (8 μg/ml) or EGF (50 ng/ml). After 18 hr, peptide 77-97 or EGF were added to the specified wells. One hour later monochloramine (0.1 mM), like the other agents, was added to the apical and basal compartments of the Transwell. […] Panels B, C: Caco2/bbe (C2) subclone monolayers were grown on collagen-coated polycarbonate filters until a stable TER was reached (225 Ω·cm^2). Spent medium was replaced with fresh medium containing FBS (0.1%) alone or with peptide 77-97 (8 μg/ml). After 18 hr, monochloramine (0.3 mM, B) or indomethacin (0.1 mM, C) was added to both compartments of the Transwell. At time 0, cultures received either vehicle (control), vehicle plus oxidant or indomethacin, or peptide 77-97 and oxidant or indomethacin. TER of injured cultures treated with vehicle decreased by ˜35% at 90 min, whereas peptide-treated cultures declined ˜10%.
C2 cell monolayers were grown in DMEM containing FBS (5%) and transferrin (10 μg/ml) on collagen-coated polycarbonate filters until a stable TER was reached (225 Ωcm^2). At time 0, cells were exposed to no DSS (control), or DSS (4%) in the upper compartment of the Transwell. AMP peptide 77-97 (8 μg/ml) was added to the upper and lower compartments of the Transwell 1 day prior to the addition of DSS at time 0. TER of DSS-injured cultures treated with vehicle decreased by ˜70% at 45 min, whereas peptide-treated cultures declined ˜10% at that time. […] Values are means for ≧6 cultures.
Confluent C2 cell monolayers were prepared on Transwells until a stable TER was established. Medium was replaced with fresh medium containing FBS (0.1%) alone (control), or with either rhAMP-18 (100 nanomolar) or peptide 77-97 (3.7 micromolar). After 18 hr, monochloramine (0.3 mM) was added to both compartments of the Transwell, and cultures received either vehicle (control), vehicle plus oxidant, rhAMP-18 and oxidant, or peptide 77-97 and oxidant, after which TER was measured.
To determine whether AMP peptide could speed recovery of TER after DSS-induced colonic cell injury, a highly sought-after functional characteristic of an agent designed to treat IBD, C2 cell monolayers were exposed to DSS (5%) for 10 min which reduced TER to 33±6% of the control value (FIG. 29, left panel). DSS was removed by aspirating the medium and replacing it with fresh medium. AMP peptide 77-97 (8 μg/ml) or vehicle was added to the culture medium, and TER was measured 18 hr later. In the presence of the vehicle, TER increased from 33% to 66±7% of the control value, whereas cells exposed to AMP peptide reached a value 112±4% of control.
To determine if the cytoprotective effect of AMP peptide is mediated at the level of the actin cytoskeleton, C2 cell monolayers were exposed to cytochalasin D, an agent known to disrupt actin filaments and compromise barrier function (Madara et al., 1986).
To determine if AMP peptide could play a cytoprotective role in GDS, a study was carried out in C2 cell monolayers that were exposed to the PA-I lectin. […] Next the effect of AMP peptide was studied in the mouse model of P. aeruginosa-induced-GDS (Laughlin et al., 2000) using female Balb/c mice subjected to 30% hepatectomy, injection of a solution of living P. aeruginosa into the cecum, and food deprivation postoperatively. All 8 of the mice survived surgery.

IEC-18 cells = assay: Wound restitution (migration) of scrape-wounded IEC-18 cell monolayers; assay type: cell-based, rat
Description: (§2) Confluent monolayer cultures were mechanically wounded by scraping with a razor blade, and the distance that cells migrated from the wound edge was measured using a microscope eyepiece reticle.
In a separate set of experiments DSS reduced restitution of scrape-wounded cultures of non-transformed diploid rat intestinal epithelial IEC-18 cells (P<0.001) (FIG. 29, right panel). When DSS was removed by aspirating the medium and the cultures allowed to recover for 24 hr after scrape wounding, cell migration during the next 24 hr was 40% greater in the presence of AMP peptide compared to vehicle (P<0.001).

MDCK cells = assay: Transepithelial electrical resistance (TER) of MDCK cell monolayers; assay type: cell-based
Description: Monolayer cultures of MDCK cells were grown on permeable polycarbonate filters (0.4-μm pore size) (Transell) in DMEM containing FBS (2%) without (control) or with peptide 77-97 (8 μg/ml) for 8 days. TER was measured 24 hr after the cells were plated, and at specified times thereafter using an epithelial volt-ohm meter (EVOM, Millipore). Following each measurement, medium containing FBS without or with peptide was changed (0, 48, and 144 hr), and additional peptide 77-97 (8 μg/ml) was added at 30 and 72 hr. At 72 hr, TER in cultures that received peptide 77-97 was twice as high as in control cultures. Values are means for 3 cultures; variance is <10% of the mean. TER was measured from 3 different areas on the filter.
as §1

HAE cells = assay: Wound restitution (migration) of scrape-wounded HAE cell monolayers; assay type: cell-based, human
Description: To measure growth (left panel), HAE cells were plated in 60-mm dishes. Peptide 77-97 (8 μg/ml), or EGF (50 ng/ml), or both were added to the medium and the number of cells counted 4 days later. […] Values are means±SE for 3 cultures. To measure migration (right panel), cells were grown in 60-mm dishes to prepare a confluent monolayer. The medium was aspirated and replaced with fresh medium containing 0.01% calf serum (CS). The monolayer was mechanically wounded by scraping with a razor blade. Detached cells were removed by aspirating medium, and rinsing the remaining cells twice with fresh medium containing 0.01% CS. Fresh medium (5 ml) containing CS (0.01%) and insulin (100 U/L) was added to wounded cultures. Either peptide 77-97 (8 μg/ml), EGF (50 ng/ml), or both were added to duplicate cultures. Migration was assessed at 24, 48 and 72 hr after wounding by measuring the distance (in mm) that cells had migrated from the wound edge using a microscope eyepiece reticle (10-mm long; 0.1-mm markings). Migrating cells at 12 randomly chosen sites along a 0.25-mm stretch of the wound edge were measured at 40-fold magnification. Migration at 2 different sites was measured for each of 2 separate wounds made in each culture. Values are the mean distance cells moved into the denuded area from the edge of 4 different wounds in 2 cultures±SE.
as §2

LDALVKEKKLQGKGPGGPPPK [97–117, peptide 77-97 of the mature protein, same as 97-117 of the human precursor]
TER after PA-I lectin (in words) (Caco2/bbe (C2) cells; 4 hr): nearly unchanged
decline of TER after PA-I lectin (Caco2/bbe (C2) cells; 4 hr, vehicle ~22%): 0-5%
decline of TER of DSS-injured cultures (Caco2/bbe (C2) cells; DSS 4%, 45 min, peptide 8 μg/ml 1 day prior, vehicle ~70%): ~10%
TER 18 hr after removal of DSS (Caco2/bbe (C2) cells; DSS 5% for 10 min, peptide 8 μg/ml, vehicle 66±7%): 112±4 % of control
TER after cytochalasin D (Caco2/bbe (C2) cells; cytochalasin D 0.01 μg/ml, 2 hr, peptide 8 μg/ml 18 hr pretreatment, vehicle -34%, listed as AMP peptide): did not decline significantly; also recorded: prevented the decline
decline of TER of injured cultures (Caco2/bbe (C2) cells; monochloramine 0.3 mM or indomethacin 0.1 mM, 90 min, peptide 8 μg/ml, vehicle ~35%): ~10%
decline in TER after monochloramine (Caco2/bbe (C2) cells; monochloramine 0.3 mM, 45 min, rhAMP-18 100 nanomolar or peptide 3.7 micromolar pre-treatment, oxidant alone ~35%): ~10%
effect on TER of non-injured cells (Caco2/bbe (C2) cells; peptide 8 μg/ml): did not alter
cell migration greater than vehicle after DSS removal (IEC-18 cells; 24 hr recovery after scrape wounding, next 24 hr, P<0.001): 40%
migration from the wound edge compared with control (IEC-18 cells; each time point, P<0.005): migrated further
maturation of TER (MDCK cells; by 24 hr and to a greater extent thereafter): increases TER
TER relative to control cultures (MDCK cells; peptide 8 μg/ml, at 72 hr): twice as high
migration from the wound edge compared with vehicle (HAE cells; peptide 8 μg/ml, EGF 50 ng/ml, 24-72 hr): migrated further
migration, peptide and EGF acting together (HAE cells; peptide 77-97 8 μg/ml + EGF 50 ng/ml): markedly enhanced migration
